In patent US20130131008A1, “LIPOPHILIC MONOPHOSPHORYLATED DERIVATIVES AND NANOPARTICLES” (BOARD OF REGENTS, THE UNIVERSITY OF TEXAS SYSTEM, priority 2011, published 2013):

Columns and labels:
[1] = test system: CCRF-CEM cells; test: In vitro cytotoxicity assay (MTT), 72 h; assay type: cell-based, human; settings: 72 h incubation
Text: (§1) Human leukemia cell line CCRF-CEM (CCL-119), human pancreatic cancer cell lines PANC-1 (CRL-1469), MIA PaCa-2 (CRL-1420), and BxPC-3 (CRL-1687), human breast adenocarcinoma cell line MCF-7 (HTB-22), and mouse lung cancer cell line TC-1 (CRL-2785) were from the American Type Culture Collection (Rockville, Md.). CCRF-CEM-AraC-8C cells (hENT1 deficient) and CCRF-CEM/dCK^−/− cells (dCK deficient) were kindly provided by Dr. Buddy Ullmann (Oregon Health & Science University, Portland, Oreg.) and Dr. Margaret Black (Washington State University, Pullman, Wash.), respectively. L1210 wt and L1210 10K were kindly supplied by Dr. Lars Petter Jordheim (Université Claude Bernard Lyon I, Lyon, France). TC-1-GR cells were previously developed in our lab. CCRF-CEM, CCRF-CEM-AraC-8C, CCRF-CEM/dCK^−/−, L1210 wt, L1210 10K, TC-1, and TC-1-GR cells were cultured in RPMI 1640 medium. MCF-7 and PANC-1 cells were cultured in Dulbecco's modified Eagle medium (DMEM), MIA PaCa-2 cells were cultured in DMEM medium with 2.5% horse serum. All media were supplemented with 10% fetal bovine serum (FBS), 100 U/mL of penicillin, and 100 μg/mL of streptomycin (all from Invitrogen, Carlsbad, Calif.).
(§2) Cells (5,000/well) were seeded in 96-well plates. After overnight incubation, they were treated with various concentrations of gemcitabine HCl, gemcitabine derivatives, or gemcitabine derivatives in nanoparticles at 37° C., 5% CO2. TC-1 and TC-1-GR cells were incubated for 48 h. CCRF-CEM, CCRF-CEM-AraC-8C, CCRF-CEM/dCK^−/−, L1210 wt, L1210 10K, and MCF-7 cells were incubated for 72 h, and MIA PaCa-2 and PANC-1 for 96 h. Gemcitabine HCl was dissolved in phosphate-buffered saline (PBS), and gemcitabine derivatives were dissolved in dimethyl sulfoxide (DMSO). […] The number of viable cells after the incubation was determined using an MTT assay. Briefly, 3-(4,5-dimethylthiazol-2-yl)-2,5-diphenyltetrazolium bromide (20 μl, 5 mg/mL) was added in each well and incubated for 3 h. Formazan crystals were solubilized with acidified isopropanol (150 μl) (for CCRF-CEM, CCRF-CEM-AraC-8C, CCRF-CEM/dCK^−/−, L1210 wt, and L1210 10K cells) or DMSO (150 μl) (for TC-1, TC-1-GR, MCF-7, PANC-1, and MIA PaCa-2). Absorbance was measured using a BioTek Synergy™ HT Multi-Mode Microplate Reader (BioTek Instruments, Winooski, Vt.) at 570 nm and 630 nm. The fraction of affected (dead) cells (Fa) and the fraction of unaffected (live) cells (Fu) at every dose were calculated, and the Log(Fa/Fu) values were plotted against the Log(concentration of gemcitabine). IC50 was the dose at Log(Fa/Fu)=0, See e.g., Chou, T. C. & Talalay, P., 1984, Adv. Enzyme Regul. 22:27-55. The experiment was repeated at least three times.

[2] = test system: TC-1 cells; test: In vitro cytotoxicity assay (MTT), 48 h; assay type: cell-based; settings: 48 h incubation
Text: as §1, §2

[3] = test system: TC-1-GR cells; test: cells; assay type: cell-based; settings: for IC50: MTT, 48 h incubation, RRM1 over-expressing
Text: as §1, §2

[4] = test system: MIA PaCa-2 cells; test: In vitro cytotoxicity assay (MTT), 96 h; assay type: cell-based, human; settings: 96 h incubation
Text: as §1, §2

[5] = test system: PANC-1 cells; test: In vitro cytotoxicity assay (MTT), 96 h, RRM2 over-expressing cells; assay type: cell-based, human; settings: for IC50: MTT, 96 h incubation, RRM2 over-expressing
Text: as §1, §2

[6] = test system: CCRF-CEM-AraC-8C cells; test: In vitro cytotoxicity assay (MTT), 72 h, hENT1 deficient cells; assay type: cell-based, human; settings: for IC50: MTT, 72 h incubation, hENT1 deficient
Text: as §1, §2

[7] = test system: CCRF-CEM/dCK−/− cells; test: In vitro cytotoxicity assay (MTT), 72 h, dCK deficient cells; assay type: cell-based, human; settings: MTT, 72 h incubation; dCK deficient
Text: as §1
Cells (5,000/well) were seeded in 96-well plates. After overnight incubation, they were treated with various concentrations of gemcitabine HCl, gemcitabine derivatives, or gemcitabine derivatives in nanoparticles at 37° C., 5% CO2. TC-1 and TC-1-GR cells were incubated for 48 h. CCRF-CEM, CCRF-CEM-AraC-8C, CCRF-CEM/dCK^−/−, L1210 wt, L1210 10K, and MCF-7 cells were incubated for 72 h, and MIA PaCa-2 and PANC-1 for 96 h. […] The number of viable cells after the incubation was determined using an MTT assay. […] Absorbance was measured using a BioTek Synergy™ HT Multi-Mode Microplate Reader (BioTek Instruments, Winooski, Vt.) at 570 nm and 630 nm. The fraction of affected (dead) cells (Fa) and the fraction of unaffected (live) cells (Fu) at every dose were calculated, and the Log(Fa/Fu) values were plotted against the Log(concentration of gemcitabine). […]

[8] = test system: B16-F10 melanoma tumor; test: Antitumor activity of GemC18/PEG-C18 micelles in mice with B16-F10 tumors (Example 20); assay type: in vivo, mouse; settings: C57BL/6 mice, tail vein injection, 0.283 mg GemHCl or molar equivalent GemC18; 2 doses (micelles 3 doses), 3 days apart
Procedure: The in vivo antitumor activity of GemC18/PEG-C18 micelles was evaluated in C57BL/6 mice with subcutaneously inoculated B16-F10 cells (5.0×10^5/mouse) in the right flank. Treatments were given 6 days after tumor cell inoculation by tail vein injection with normal saline, Gemcitabine HCl (GemHCl) solution, GemC18 solution, blank PEG-C18 micelles, or GemC18/PEG-C18 micelles. The dose was 0.283 mg of GemHCl or molar equivalent amount of GemC18. All groups received a second dose three days after the first dose, while the GemC18/PEG-C18 micelle group also received a third dose 3 days after the second dose. Tumor sizes were measured with calipers in two perpendicular diameters every day and reported as tumor volume (V=½ [a×b^2], a=longer diameter, b=shorter diameter).

[9] = Solubility observations (DMSO, water); assay type: physicochemical; settings: for the in vitro cytotoxicity assay
[10] = IC50 of gemcitabine HCl divided by that of the derivatives or derivatives in nanoparticles

CCCCCCCCCCCCCCCCCCOP(=O)(O)OC[C@H]1O[C@@H](n2ccc(NC(C)=O)nc2=O)C(F)(F)[C@@H]1O [Compound 9, 4-N-acetyl-2′-2′-difluoro-2′-deoxycytidine-5′-octadecylphosphate]
IC50 [1]: 58.1 ± 18.5 nM
IC50 [2]: 211 ± 85 nM
IC50 [3]: 9300 ± 2500 nM
IC50 [4]: 205 ± 39.5 nM
IC50 [5]: 38500 ± 5700 nM
IC50 [6]: 575 ± 97.1 nM

CCCCCCCCCCCCCCCCCC(=O)Nc1ccn([C@@H]2OC(CO)C(O)C2(F)F)c(=O)n1 (stereo partly shown) [GemC18, 4-N-stearoyl gemcitabine]
IC50 [1]: 19.4 ± 13.3 nM
IC50 [7]: 47300 ± 8700 nM
IC50 [2]: 132 ± 17.2 nM
Ratio of IC50 values in TC-1-GR cells [3, 10]: 5
IC50 [3]: 7700 ± 2400 nM
IC50 [4]: 133 ± 60.4 nM
Ratio of IC50 in PANC-1 to that in MIA PaCa-2 [5]: 45
IC50 [5]: 6000 ± 1100 nM
Ratio of IC50 in CCRF-CEM-AraC-8C to that in CCRF-CEM [6]: 19
Ratio of IC50 values in CEM-AraC-8C cells [6, 10]: 2.7
IC50 [6]: 369 ± 235 nM
B16-F10 tumor growth (tumor volume) [8]: not significant different from that in mice that received normal saline

CCCCCCCCCCCCCCCCCC(=O)OCC(Cl)COP(=O)(O)OC[C@H]1O[C@@H](n2ccc(N)nc2=O)C(F)(F)[C@@H]1O (mixture of isomers) [Compound 12, 2′-2′-difluoro-2′-deoxycytidine 5′(3-stearoyloxy-2-rac-chloropropyl)phosphate]
IC50 [1]: 49.8 ± 5.9 nM
IC50 [2]: 430 ± 52.4 nM
IC50 [3]: 76300 ± 10500 nM
IC50 [4]: 245 ± 38 nM
IC50 [5]: 58700 ± 14200 nM
IC50 [6]: 1770 ± 533 nM

CCCCCCCCCCCCCCCCCC(=O)Nc1ccn([C@@H]2O[C@H](COP(=O)(O)O)C(O)C2(F)F)c(=O)n1 (stereo in doubt) [Compound 13, 4-N-Octadecanoyl-2′-2′-difluoro-2′-deoxycytidine 5′-sodiumphosphate]
solubility in DMSO [9]: not sufficiently solubilized in DMSO
